# Measured values from patent publication US7595395B2, “Gabaergic agents to treat memory deficits” (priority 2005, dated 2009).
# Tests used:
# [1] = molecular target: GABAA/α2 receptors (Homo sapiens, UniProt P18507+P47869); conditions: Huang et al. 2000, WO 03/082832A2; cited from earlier work
# [2] = molecular target: GABAA/α5 receptors (Homo sapiens, UniProt P18507+P31644); conditions: Huang et al. 2000, WO 03/082832A2; cited from earlier work
# [3] = molecular target: GABAA/α3 receptors (Homo sapiens, UniProt P18507+P34903); conditions: Huang et al. 2000, WO 03/082832A2; cited from earlier work
# [4] = molecular target: GABAA/α1 receptors (Homo sapiens, UniProt P14867+P18507); conditions: Huang et al. 2000, WO 03/082832A2; cited from earlier work
# [5] = tested on: C57B1/6 mice; conditions: DeLorey et al.; cited from earlier work
# [6] = molecular target: α3β3γ2 GABAA receptor (Rattus norvegicus, UniProt P18508+P20236); assay: Two-electrode voltage clamp in Xenopus oocytes, α3β3γ2
# α3β3γ2 GABAA receptor, sequence (P20236 29-493): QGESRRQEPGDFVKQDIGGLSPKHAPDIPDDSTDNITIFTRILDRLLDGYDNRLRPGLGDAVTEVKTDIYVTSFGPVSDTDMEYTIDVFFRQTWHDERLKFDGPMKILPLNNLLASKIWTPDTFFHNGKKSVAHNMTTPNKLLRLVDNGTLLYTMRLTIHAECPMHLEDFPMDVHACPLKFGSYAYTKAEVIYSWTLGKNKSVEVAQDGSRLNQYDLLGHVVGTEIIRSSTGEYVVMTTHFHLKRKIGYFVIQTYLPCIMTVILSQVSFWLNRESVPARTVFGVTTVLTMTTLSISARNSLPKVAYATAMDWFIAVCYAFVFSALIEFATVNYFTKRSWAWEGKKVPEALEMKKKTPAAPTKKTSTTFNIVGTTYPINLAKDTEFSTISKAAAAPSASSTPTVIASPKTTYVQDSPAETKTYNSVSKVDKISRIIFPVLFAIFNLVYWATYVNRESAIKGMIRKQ
# α3β3γ2 GABAA receptor, sequence (P63079 26-473 partner): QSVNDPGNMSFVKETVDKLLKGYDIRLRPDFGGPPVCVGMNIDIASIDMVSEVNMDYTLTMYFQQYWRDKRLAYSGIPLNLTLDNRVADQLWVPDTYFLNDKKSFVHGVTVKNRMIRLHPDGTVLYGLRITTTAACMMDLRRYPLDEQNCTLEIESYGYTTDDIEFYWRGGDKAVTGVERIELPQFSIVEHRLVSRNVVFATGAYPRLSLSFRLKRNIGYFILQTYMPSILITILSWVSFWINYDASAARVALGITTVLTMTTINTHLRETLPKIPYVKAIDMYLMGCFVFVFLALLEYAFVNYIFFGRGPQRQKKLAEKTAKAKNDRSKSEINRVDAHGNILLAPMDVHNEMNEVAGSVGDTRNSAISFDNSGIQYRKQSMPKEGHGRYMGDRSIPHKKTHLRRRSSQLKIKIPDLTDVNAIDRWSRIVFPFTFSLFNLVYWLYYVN
# α3β3γ2 GABAA receptor, sequence (P18508 39-466): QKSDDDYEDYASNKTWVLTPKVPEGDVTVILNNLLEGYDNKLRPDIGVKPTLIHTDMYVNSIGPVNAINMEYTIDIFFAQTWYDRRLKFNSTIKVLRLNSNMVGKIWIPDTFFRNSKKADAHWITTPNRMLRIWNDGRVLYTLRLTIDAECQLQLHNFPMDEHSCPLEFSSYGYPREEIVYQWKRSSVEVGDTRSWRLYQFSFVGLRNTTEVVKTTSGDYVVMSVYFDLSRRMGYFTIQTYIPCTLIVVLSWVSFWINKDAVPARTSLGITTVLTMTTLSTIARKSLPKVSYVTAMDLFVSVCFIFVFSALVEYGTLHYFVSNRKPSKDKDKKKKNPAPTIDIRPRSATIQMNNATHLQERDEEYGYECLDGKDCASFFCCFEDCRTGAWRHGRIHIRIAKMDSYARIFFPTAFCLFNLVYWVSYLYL
# [7] = molecular target: α6β3γ2 GABAA receptor (Rattus norvegicus, UniProt P18508+P30191); assay: Two-electrode voltage clamp in Xenopus oocytes, α6β3γ2
# [8] = molecular target: α1β3γ2 GABAA receptor (Rattus norvegicus, UniProt P18508+P62813); assay: Two-electrode voltage clamp in Xenopus oocytes, α1β3γ2
# α1β3γ2 GABAA receptor, sequence (P62813 28-455): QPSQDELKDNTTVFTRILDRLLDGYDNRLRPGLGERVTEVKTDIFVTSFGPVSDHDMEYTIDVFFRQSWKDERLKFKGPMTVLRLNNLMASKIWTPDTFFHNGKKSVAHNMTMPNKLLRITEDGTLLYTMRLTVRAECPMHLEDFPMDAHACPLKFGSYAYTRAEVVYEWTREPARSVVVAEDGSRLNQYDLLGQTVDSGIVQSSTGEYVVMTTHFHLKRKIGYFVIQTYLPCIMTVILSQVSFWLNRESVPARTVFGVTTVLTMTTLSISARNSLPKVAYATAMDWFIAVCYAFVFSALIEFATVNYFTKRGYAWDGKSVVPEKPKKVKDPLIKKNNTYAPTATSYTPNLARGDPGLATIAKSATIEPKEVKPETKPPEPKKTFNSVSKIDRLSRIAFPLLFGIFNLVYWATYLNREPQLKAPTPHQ
# α1β3γ2 GABAA receptor, sequence (P63079 26-473 partner): as the sequence (P63079 26-473 partner) above
# α1β3γ2 GABAA receptor, sequence (P18508 39-466): as the sequence (P18508 39-466) above
# [9] = tested on: GABAA receptor subtypes (alpha 1 to alpha 6 with beta 3 and gamma 2); assay: Direct triggering of chloride currents in oocytes, all tested subtypes; format: cell-based; conditions: no GABA
# [10] = molecular target: α5β3γ2 GABAA receptor (Rattus norvegicus, UniProt P18508+P19969); assay: Two-electrode voltage clamp in Xenopus oocytes, α5β3γ2
# α5β3γ2 GABAA receptor, sequence (P19969 26-464): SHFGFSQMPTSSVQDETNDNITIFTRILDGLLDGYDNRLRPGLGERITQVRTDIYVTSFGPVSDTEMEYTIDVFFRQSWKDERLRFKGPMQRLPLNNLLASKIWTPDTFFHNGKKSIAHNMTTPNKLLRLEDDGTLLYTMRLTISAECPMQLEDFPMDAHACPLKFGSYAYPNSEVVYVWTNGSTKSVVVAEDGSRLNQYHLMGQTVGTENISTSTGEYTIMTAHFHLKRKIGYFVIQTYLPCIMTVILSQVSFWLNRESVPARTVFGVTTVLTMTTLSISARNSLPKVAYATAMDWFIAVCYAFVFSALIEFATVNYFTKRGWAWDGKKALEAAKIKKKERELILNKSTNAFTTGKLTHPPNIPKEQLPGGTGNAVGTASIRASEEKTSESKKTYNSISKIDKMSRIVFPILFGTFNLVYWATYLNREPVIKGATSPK
# α5β3γ2 GABAA receptor, sequence (P63079 26-473 partner): as the sequence (P63079 26-473 partner) above
# α5β3γ2 GABAA receptor, sequence (P18508 39-466): as the sequence (P18508 39-466) above
# [11] = molecular target: α2β3γ2 GABAA receptor (Rattus norvegicus, UniProt P18508+P23576); assay: Two-electrode voltage clamp in Xenopus oocytes, α2β3γ2
# [12] = molecular target: α4β3γ2 GABAA receptor (Rattus norvegicus, UniProt P18508+P28471); assay: Two-electrode voltage clamp in Xenopus oocytes, α4β3γ2
# [13] = tested on: C57BL/6J mice; assay: Titrating delayed matching-to-position schedule; format: in vivo
# Method: In regard to cognition, the effect of systemic administration of subtype selective agents on short term memory was determined in white Carneau pigeons. Administration of drug was intramuscularly and the titrating matching-to-sample schedule of reinforcement was used. […] In addition, C57BL/6J mice were used to look at the mean delay achieved in the titrating delayed matching-to-position schedule (doses, ip).
# [14] = molecular target: T1, α5β3γ2 benzodiazepine receptor GABA(A) isoform (UniProt P18507+P31644); assay: Radioligand competition binding, α5β3γ2 BzR/GABA(A) isoform; set-up: rows headed: Ki at α5β3γ2 subtypes; other: text; α1-6β3γ2 LTK cells; species or system human and rat; conditions: read-out: Ki at α5β3γ2 subtypes; α1-6β3γ2 LTK cells
# T1 sequence (P18507 1-475): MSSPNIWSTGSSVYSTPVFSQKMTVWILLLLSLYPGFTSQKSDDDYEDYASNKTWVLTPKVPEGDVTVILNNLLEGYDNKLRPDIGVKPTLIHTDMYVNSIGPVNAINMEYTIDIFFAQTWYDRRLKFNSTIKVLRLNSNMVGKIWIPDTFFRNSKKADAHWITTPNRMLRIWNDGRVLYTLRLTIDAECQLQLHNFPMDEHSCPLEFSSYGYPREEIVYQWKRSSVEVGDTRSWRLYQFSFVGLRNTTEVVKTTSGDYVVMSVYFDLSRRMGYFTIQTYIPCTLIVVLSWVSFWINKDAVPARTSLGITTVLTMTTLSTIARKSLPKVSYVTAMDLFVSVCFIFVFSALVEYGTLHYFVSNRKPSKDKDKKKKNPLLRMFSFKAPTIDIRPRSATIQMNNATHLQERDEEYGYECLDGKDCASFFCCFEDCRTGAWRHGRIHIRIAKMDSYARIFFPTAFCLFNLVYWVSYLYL
# T1 sequence (P31644 1-462): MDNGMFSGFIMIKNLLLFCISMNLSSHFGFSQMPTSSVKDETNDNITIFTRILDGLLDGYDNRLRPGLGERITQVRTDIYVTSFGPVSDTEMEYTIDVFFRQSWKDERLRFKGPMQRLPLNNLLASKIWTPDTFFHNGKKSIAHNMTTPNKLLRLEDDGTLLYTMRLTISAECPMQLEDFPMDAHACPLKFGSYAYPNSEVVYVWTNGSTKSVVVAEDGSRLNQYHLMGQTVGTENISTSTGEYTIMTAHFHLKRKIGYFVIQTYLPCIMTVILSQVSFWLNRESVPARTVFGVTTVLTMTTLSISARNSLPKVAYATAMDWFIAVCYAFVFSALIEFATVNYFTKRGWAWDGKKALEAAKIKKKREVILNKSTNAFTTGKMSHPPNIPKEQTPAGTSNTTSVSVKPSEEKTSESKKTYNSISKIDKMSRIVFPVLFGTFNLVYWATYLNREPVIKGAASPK
# [15] = Crossing of the blood brain barrier; conditions: in vivo
# [16] = tested on: αxβ3γ2 (α = 1-6) BzR/GABA(A) subtypes; assay: Binding across the BzR/GABA(A) subtypes (subtype selectivity in words); set-up: species or system human and rat
# Method: The binding affinity of XLi093 (8) in vitro was determined on α1-6β3γ2 LTK cells and is illustrated in the Scheme as shown in FIG. 2
# The affinity of all ligands at the 6 major recombinant GABAA/BzR subtypes was measured by competition for [^3H]Ro15-1788 binding to HEK-T cells expressing both human and rat GABAA/Bz receptors of composition α1β2γ2 (α1), α2β2γ2 (α2), α3β2γ2 (α3), α4β2γ2 (α4), α5β2γ2 (α5) and α6β2γ2 (α6). It is well known that the β2 and β3 subunits can be interchanged with no effect on Bz ligand affinity or efficacy. […] These studies are similar to those performed in the laboratory of Bryan Roth who has already expressed the receptors employing the work of Kucken et. al. and Gray et. al.
# In brief, for membrane preparations, the cells were scraped on to the ice and diluted into 5 mL of phosphate buffered saline (pH=7.40) and cells pelleted by centrifugation for 5 min. at 4° C. The pellet was resuspended in 1 mL of 50 mM Tris-acetate buffer (pH 7.4) and centrifuged at 18,000 g for 20 min. […] The membranes were harvested in polyethyleneimine-pretreated Whatman GF/C filters and after drying and addition of scintillation cocktail, counted in a scintillation counter. […]
# GABAA/α5 receptors, sequence (P28472 26-473 partner, one chain of several): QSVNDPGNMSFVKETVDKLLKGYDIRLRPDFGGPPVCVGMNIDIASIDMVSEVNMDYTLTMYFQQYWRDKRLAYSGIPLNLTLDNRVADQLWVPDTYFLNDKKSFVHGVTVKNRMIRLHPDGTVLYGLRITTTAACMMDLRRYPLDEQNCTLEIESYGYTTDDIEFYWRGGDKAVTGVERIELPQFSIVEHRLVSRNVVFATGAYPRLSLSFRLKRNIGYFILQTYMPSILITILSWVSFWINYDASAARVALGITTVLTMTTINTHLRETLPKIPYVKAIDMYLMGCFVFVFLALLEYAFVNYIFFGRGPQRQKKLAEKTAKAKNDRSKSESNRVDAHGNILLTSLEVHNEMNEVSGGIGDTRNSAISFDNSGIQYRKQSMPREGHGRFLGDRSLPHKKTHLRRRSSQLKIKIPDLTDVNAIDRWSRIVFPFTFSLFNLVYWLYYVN
smiles,measurement,setting,value
C#Cc1ccc2c(c1)C(c1ccccc1)=NCC(=O)N2C [QH-ii-066],Ki,[1],< 50 nM
same,Ki,[2],< 10 nM
same,Ki,[3],< 50 nM
same,Ki,[4],> 70 nM
"CCOC(=O)c1ncn2c1CN(C)C(=O)c1cc(CC)ccc1-2 [RY10, Ethyl 8-Ethyl-5,6-dihydro-5-methyl-6-oxo-4H-imidazo[1,5a][1,4]benzodiazepine-3-carboxylate]",reversal of scopolamine-induced memory impairment (in words),[5],potently reversed scopolamine-induced memory impairment
C#Cc1ccc2c(c1)C(=O)N(C)Cc1c(C(=O)OC(C)(C)C)ncn1-2 [RY024],reduction of the stimulation by 30 nM Diazepam,"[6]; 1 μM compound, α3 containing receptors, GABA EC3",96.3±4.7%
same,Estimated maximum modulation ± SD,"[6]; GABA EC20, α3β3γ2, extrapolated by curve-fit",−3.3±2.1%
same,efficacy / modulation of GABA elicited currents at α3 (in words),[6]; oocytes,no apparent modulation
same,Estimated maximum modulation ± SD,"[7]; GABA EC20, α6β3γ2, extrapolated by curve-fit",+35.2 ± 1.5%
same,efficacy / modulation of GABA elicited currents at α6 (in words),[7]; oocytes,weakly stimulated
same,Estimated maximum modulation ± SD,"[8]; GABA EC20, α1β3γ2, extrapolated by curve-fit",−31.0±2.5%
same,efficacy / modulation of GABA elicited currents at α1 (in words),[8]; oocytes,reduced GABA elicited currents in a concentration dependent manner
same,triggering of chloride currents (in words),[9]; concentrations up to 1 μM,did not trigger chloride currents
same,Estimated maximum modulation ± SD,"[10]; GABA EC20, α5β3γ2, extrapolated by curve-fit",−40.4±0.8%
same,efficacy / modulation of GABA elicited currents at α5 (in words),[10]; oocytes,reduced GABA elicited currents in a concentration dependent manner
same,EC50 lower for α5 containing receptors than for α1 and α2,[10]; reduction of GABA elicited currents,~10 fold
same,Estimated maximum modulation ± SD,"[11]; GABA EC20, α2β3γ2, extrapolated by curve-fit",−20.7±1.2%
same,efficacy / modulation of GABA elicited currents at α2 (in words),[11]; oocytes,reduced GABA elicited currents in a concentration dependent manner
same,Estimated maximum modulation ± SD,"[12]; GABA EC20, α4β3γ2, extrapolated by curve-fit",+43.0 ± 15.9%
same,efficacy / modulation of GABA elicited currents at α4 (in words),[12]; oocytes,weakly stimulated
"C#Cc1ccc2c(c1)C(=O)N(C)Cc1c(C(=O)OCCCOC(=O)c3ncn4c3CN(C)C(=O)c3cc(C#C)ccc3-4)ncn1-2 [XLi-093, 1,3-Bis(8-acetyleno-5,6-dihydro-5-methyl-6-oxo-4H-imidazo[1,5a][1,4]-benzodiaze-pine-3-carboxy)propyl diester]",performance / mean delay under titrating delayed matching to position schedule (in words),[13],does indeed enhance performance
same,modulation of GABA induced chloride flux (in words),"[6]; 1 uM, α3β3γ2",did not modulate
same,influence on diazepam stimulation of GABA-induced current (in words),"[6]; 1 μM, α3β3γ2",only marginally influenced
same,modulation of GABA induced chloride flux (in words),"[8]; 1 uM, α1β3γ2",did not modulate
same,influence on diazepam stimulation of GABA-induced current (in words),"[8]; 1 μM, α1β3γ2",only marginally influenced
same,triggering of chloride currents (in words),[9]; up to a concentration of 1 nM,did not trigger chloride currents
same,Ki,[14],15 nM
same,crossing of the blood brain barrier (in words),[15],does cross the blood brain barrier
same,affinity at other BzR/GABA(A) subtypes than α5 (in words),[16],little or no affinity
same,modulation of GABA induced chloride flux (in words),"[10]; 1 uM, α5β3γ2",very slightly inhibited currents
same,influence on diazepam stimulation of GABA-induced current (in words),"[10]; 1 μM, α5β3γ2",shifted the diazepam dose response curve to the right
same,inhibition of diazepam-stimulated currents (in words),[10]; α5β3γ2 receptors,dose dependently and completely inhibit
same,modulation of GABA induced chloride flux (in words),"[11]; 1 uM, α2β3γ2",did not modulate
same,influence on diazepam stimulation of GABA-induced current (in words),"[11]; 1 μM, α2β3γ2",only marginally influenced
